Laboratory results as given in PubChem BioAssay AID330 (DTP/NCI, 2004).
Where “and” joins values, the source holds several entries; their conditions need not be identical. Equal values may be shown once. Toxic doses and inconclusive results are not listed.

Test system: P388 leukemia ip, CD2F1 mice, survival T/C
Assay: NCI In Vivo Anticancer Drug Screen. Data for tumor model P388 Leukemia (intraperitoneal) in CD2F1 (CDF1) mice
Conditions: endpoint: median survival time, higher = longer survival
Method in brief: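 Mice carrying the transplanted tumor received test compound or vehicle. Survival was recorded in each group, and the value is the treated-group measurement divided by that of the vehicle-treated control group.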

[1] = dose: 25.0 mg/kg/injection, schedule: Q01DX009 (ip), vehicle: saline with Tween-80
[2] = dose: 50.0 mg/kg/injection, schedule: Q01DX009 (ip), vehicle: saline
[3] = dose: 100.0 mg/kg/injection, schedule: Q01DX009 (ip), vehicle: saline
[4] = dose: 25.0 mg/kg/injection, schedule: Q01DX009 (ip), vehicle: Klucel (hydroxypropylcellulose) (HPC)
[5] = dose: 100.0 mg/kg/injection, schedule: Q01DX009 (ip), vehicle: Klucel (hydroxypropylcellulose) (HPC)
[6] = dose: 50.0 mg/kg/injection, schedule: Q01DX009 (ip), vehicle: Klucel (hydroxypropylcellulose) (HPC)
[7] = dose: 50.0 mg/kg/injection, schedule: Q01DX005 (ip), vehicle: Klucel (hydroxypropylcellulose) (HPC)
[8] = dose: 100.0 mg/kg/injection, schedule: Q01DX005 (ip), vehicle: Klucel (hydroxypropylcellulose) (HPC)
[9] = dose: 200.0 mg/kg/injection, schedule: Q01DX005 (ip), vehicle: Klucel (hydroxypropylcellulose) (HPC)

Cc1c(NC(=O)CCCl)c(=O)oc2c(C)c3occc(=O)c3cc12
T/C (dose: 100.0 mg/kg/injection, schedule: Q01DX001 (ip), vehicle: saline with Tween-80): 100 % of control
T/C (dose: 200.0 mg/kg/injection, schedule: Q01DX001 (ip), vehicle: saline with Tween-80): 99 % of control
T/C (dose: 400.0 mg/kg/injection, schedule: Q01DX001 (ip), vehicle: saline with Tween-80): 90 % of control

O=NN(CCCl)C(=O)Nc1ccc(I)cc1
T/C (dose: 3.0 mg/kg/injection, schedule: Q01DX009 (ip), vehicle: saline with Tween-80): 154 % of control
T/C (dose: 4.5 mg/kg/injection, schedule: Q01DX009 (ip), vehicle: saline with Tween-80): 163 % of control
T/C (dose: 6.25 mg/kg/injection, schedule: Q04DX003 (ip), vehicle: saline with Tween-80): 154 % of control
T/C (dose: 11.0 mg/kg/injection, schedule: Q01DX009 (ip), vehicle: saline with Tween-80): 150 % of control and 152 % of control
T/C (dose: 12.5 mg/kg/injection, schedule: Q04DX003 (ip), vehicle: saline with Tween-80): 163 % of control
T/C (dose: 16.5 mg/kg/injection, schedule: Q01DX009 (ip), vehicle: saline with Tween-80): 154 % of control and 157 % of control
T/C [1]: 152 % of control and 154 % of control and 163 % of control
T/C (dose: 25.0 mg/kg/injection, schedule: Q04DX003 (ip), vehicle: saline sonified): 150 % of control
T/C (dose: 37.5 mg/kg/injection, schedule: Q01DX009 (ip), vehicle: saline with Tween-80): 171 % of control and 177 % of control
T/C (dose: 50.0 mg/kg/injection, schedule: Q01DX009 (ip), vehicle: saline with Tween-80): 200 % of control
T/C (dose: 50.0 mg/kg/injection, schedule: Q04DX003 (ip), vehicle: saline sonified): 183 % of control

C(=C\c1cc2ccc(C3=NCCN3)cc2o1)/c1cc2ccc(C3=NCCN3)cc2o1
T/C (dose: 12.5 mg/kg/injection, schedule: Q04DX003 (ip), vehicle: suspension in saline): 107 % of control
T/C (dose: 25.0 mg/kg/injection, schedule: Q04DX003 (ip), vehicle: suspension in saline): 114 % of control
T/C (dose: 50.0 mg/kg/injection, schedule: Q04DX003 (ip), vehicle: suspension in saline): 106 % of control
T/C (dose: 100.0 mg/kg/injection, schedule: Q04DX003 (ip), vehicle: suspension in saline): 122 % of control

CC12NC(=O)NC1(C)NC(=O)N2 (stereo not given)
T/C [2]: 107 % of control
T/C [3]: 87 % of control
T/C (dose: 100.0 mg/kg/injection, schedule: Q04DX003 (ip), vehicle: saline): 103 % of control
T/C (dose: 200.0 mg/kg/injection, schedule: Q04DX003 (ip), vehicle: saline): 97 % of control

CCSc1nc2ccc(N=Cc3ccccc3O)cc2s1
T/C (dose: 12.5 mg/kg/injection, schedule: Q01DX009 (ip), vehicle: Klucel (hydroxypropylcellulose) (HPC)): 99 % of control and 88 % of control
T/C [4]: 101 % of control and 93 % of control
T/C [5]: 106 % of control and 218 % of control and 91 % of control

CN(C)c1ccc(C(=C2C=CC(=[N+](C)C)C=C2)c2ccccc2Cl)cc1
T/C (dose: 1.56 mg/kg/injection, schedule: Q01DX005 (ip), vehicle: saline with Tween-80): 117 % of control
T/C (dose: 3.13 mg/kg/injection, schedule: Q01DX005 (ip), vehicle: saline with Tween-80): 117 % of control and 121 % of control
T/C (dose: 6.25 mg/kg/injection, schedule: Q01DX005 (ip), vehicle: saline with Tween-80): 118 % of control (2×) and 121 % of control
T/C (dose: 12.5 mg/kg/injection, schedule: Q01DX005 (ip), vehicle: saline with Tween-80): 112 % of control and 88 % of control

CC(=O)N(C)N(Cc1ccc(C#N)cc1)C(C)=O
T/C [4]: 101 % of control
T/C [6]: 98 % of control
T/C [5]: 99 % of control
T/C (dose: 200.0 mg/kg/injection, schedule: Q01DX009 (ip), vehicle: Klucel (hydroxypropylcellulose) (HPC)): 108 % of control
T/C (dose: 400.0 mg/kg/injection, schedule: Q01DX009 (ip), vehicle: Klucel (hydroxypropylcellulose) (HPC)): 98 % of control

CCOP(=S)(N/N=C/c1ccc(Cl)s1)OCC
T/C [7]: 115 % of control
T/C [8]: 110 % of control
T/C [9]: 114 % of control

O=C1CC2(CCCC2)CC(=O)N1c1ccc(-c2ccc(N3C(=O)CC4(CCCC4)CC3=O)cc2)cc1
T/C [6]: 100 % of control
T/C [5]: 94 % of control

NC(N)=Nc1ccc(C(=O)Oc2ccc([N+](=O)[O-])cc2)cc1
T/C (dose: 100.0 mg/kg/injection, schedule: Q04DX003 (ip), vehicle: saline with Tween-80): 104 % of control
T/C (dose: 200.0 mg/kg/injection, schedule: Q04DX003 (ip), vehicle: saline with Tween-80): 100 % of control
T/C (dose: 400.0 mg/kg/injection, schedule: Q04DX003 (ip), vehicle: saline with Tween-80): 95 % of control

N#Cc1c(N)[nH]c2ccc(Sc3ccccc3)cc12
T/C (dose: 7.5 mg/kg/injection, schedule: Q01DX005 (ip), vehicle: saline with Tween-80): 97 % of control
T/C (dose: 15.0 mg/kg/injection, schedule: Q01DX005 (ip), vehicle: saline with Tween-80): 99 % of control
T/C (dose: 30.0 mg/kg/injection, schedule: Q01DX005 (ip), vehicle: saline with Tween-80): 104 % of control

CCn1c(=O)c2n[nH]nc2n(C2CC2)c1=O
T/C [2]: 92 % of control
T/C [3]: 96 % of control
T/C (dose: 200.0 mg/kg/injection, schedule: Q01DX009 (ip), vehicle: saline): 105 % of control

C/C=C1\CN2CC[C@H]1C[C@H]2[C@H](O)c1ccnc2ccc(NCCO)cc12
T/C (dose: 50.0 mg/kg/injection, schedule: Q01DX005 (ip), vehicle: saline): 94 % of control
T/C (dose: 100.0 mg/kg/injection, schedule: Q01DX005 (ip), vehicle: saline): 99 % of control
T/C (dose: 200.0 mg/kg/injection, schedule: Q01DX005 (ip), vehicle: saline): 99 % of control

Cc1ccc(C2(C(=O)C=[N+]=[N-])OC2(C)C)cc1 (stereo not given)
T/C (dose: 25.0 mg/kg/injection, schedule: Q01DX005 (ip), vehicle: saline with Tween-80): 99 % of control
T/C (dose: 50.0 mg/kg/injection, schedule: Q01DX005 (ip), vehicle: saline with Tween-80): 99 % of control
T/C (dose: 100.0 mg/kg/injection, schedule: Q01DX005 (ip), vehicle: saline with Tween-80): 115 % of control
T/C (dose: 200.0 mg/kg/injection, schedule: Q01DX005 (ip), vehicle: saline with Tween-80): 108 % of control

O=C(O)C(=O)O.[Co].[NH-]CCC[NH-].[NH-]CCC[NH-]
T/C (dose: 25.0 mg/kg/injection, schedule: Q04DX002 (ip), vehicle: saline): 98 % of control

CCOC(=O)C(N)CSCSC (stereo not given)
T/C (dose: 50.0 mg/kg/injection, schedule: Q01DX009 (ip), vehicle: water): 88 % of control
T/C (dose: 100.0 mg/kg/injection, schedule: Q01DX009 (ip), vehicle: water): 97 % of control
T/C (dose: 200.0 mg/kg/injection, schedule: Q01DX009 (ip), vehicle: water): 86 % of control
T/C (dose: 400.0 mg/kg/injection, schedule: Q01DX009 (ip), vehicle: water): 94 % of control

CC(C)CCSC1=CC(=O)c2ccccc2C1=O
T/C (dose: 3.13 mg/kg/injection, schedule: Q01DX009 (ip), vehicle: saline with Tween-80): 99 % of control
T/C (dose: 6.25 mg/kg/injection, schedule: Q01DX009 (ip), vehicle: saline with Tween-80): 109 % of control
T/C (dose: 12.5 mg/kg/injection, schedule: Q01DX009 (ip), vehicle: saline with Tween-80): 109 % of control
T/C [1]: 114 % of control

CCCCCCCCCCN=Cc1c(O)c(O)c(CCC)c2cc(C)c(-c3c(C)cc4c(CCC)c(O)c(O)c(C=NCCCCCCCCCC)c4c3O)c(O)c12
T/C (dose: 25.0 mg/kg/injection, schedule: Q01DX005 (ip), vehicle: Klucel (hydroxypropylcellulose) (HPC)): 100 % of control
T/C [7]: 95 % of control
T/C [8]: 98 % of control
T/C [9]: 95 % of control

COc1cccc2c1C(=O)c1c(O)c3c(c(O)c1C2=O)C[C@@](O)(C(C)=O)C[C@@H]3OC1CC(N2CCC(OC)CC2)C(O)C(C)O1 (stereo not given in full)
T/C (dose: 0.39 mg/kg/injection, schedule: Q04DX003 (ip), vehicle: water): 114 % of control
T/C (dose: 0.78 mg/kg/injection, schedule: Q04DX003 (ip), vehicle: water): 104 % of control
T/C (dose: 1.56 mg/kg/injection, schedule: Q04DX003 (ip), vehicle: water): 111 % of control and 114 % of control
T/C (dose: 6.25 mg/kg/injection, schedule: Q04DX003 (ip), vehicle: water): 181 % of control and 217 % of control
T/C (dose: 12.5 mg/kg/injection, schedule: Q04DX003 (ip), vehicle: water): 118 % of control

CCN(CC)CCOCCOC1(C)CCC(C(C)C)CC1 (stereo not given)
T/C (dose: 50.0 mg/kg/injection, schedule: Q01DX005 (ip), vehicle: suspension in saline): 108 % of control
T/C (dose: 100.0 mg/kg/injection, schedule: Q01DX005 (ip), vehicle: suspension in saline): 106 % of control
